Measurements: ChEMBL document CHEMBL4823255, “Discovery of novel potent migrastatic Thiazolo[5,4-b]pyridines targeting Lysyl-tRNA synthetase (KRS) for treatment of Cancer metastasis” (Eur J Med Chem, 2021)
pEC50, pKd: −log10 of the molar value. Calls of active or inactive are those of the source. The rule behind the calls is not given here.

How the values were obtained:
[1] = test system: MDA-MB-231; assay: Antimigratory activity against tetracycline-induced KRS T52D mutant overexpressing human MDA-MB-231 cells assessed as inhibition of cell migration at 3 uM measured after 4 hrs by flourescence plate reader method; assay type: functional
[2] = test system: NCI-H226; assay: Antimigratory activity against human NCI-H226 cells assessed as inhibition of cell migration measured after 12 hrs by Transwell assay; assay type: functional, cell-based; details: NCI-H226, 12 h
[3] = target: T1, Lysine--tRNA ligase (Homo sapiens, UniProt Q15046); assay: Binding affinity to human N-terminal His6-tagged 15N-labelled KRS (1 to 207 residues) expressed in Escherichia coli BL21(DE3) at 0.4 mM by 1H-15N TROSY NMR analysis
Target sequence in this assay (Q15046 2-597 limits assumed): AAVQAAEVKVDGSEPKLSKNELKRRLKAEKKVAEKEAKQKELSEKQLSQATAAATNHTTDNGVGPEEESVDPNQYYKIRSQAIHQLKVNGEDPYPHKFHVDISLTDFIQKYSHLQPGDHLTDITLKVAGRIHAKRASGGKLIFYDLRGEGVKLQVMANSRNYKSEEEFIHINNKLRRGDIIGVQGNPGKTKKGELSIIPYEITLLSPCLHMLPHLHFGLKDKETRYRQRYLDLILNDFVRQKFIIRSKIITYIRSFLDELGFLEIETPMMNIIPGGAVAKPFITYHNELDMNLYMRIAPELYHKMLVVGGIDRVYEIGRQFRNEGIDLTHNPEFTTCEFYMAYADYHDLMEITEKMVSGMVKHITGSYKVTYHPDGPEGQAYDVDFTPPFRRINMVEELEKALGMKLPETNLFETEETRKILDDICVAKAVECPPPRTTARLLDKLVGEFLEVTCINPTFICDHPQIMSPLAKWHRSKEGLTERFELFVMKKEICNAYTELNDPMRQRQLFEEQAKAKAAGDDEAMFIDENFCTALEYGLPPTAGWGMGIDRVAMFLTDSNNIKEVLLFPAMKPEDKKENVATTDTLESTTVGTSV

[4] = target: T1, Lysine--tRNA ligase; assay: Binding affinity to human N-terminal His6-tagged 15N-labelled KRS (1 to 207 residues) expressed in Escherichia coli BL21(DE3) measured by flourescence based binding titration assay
Target sequence in this assay (Q15046 whole entry, the tested form may be a part): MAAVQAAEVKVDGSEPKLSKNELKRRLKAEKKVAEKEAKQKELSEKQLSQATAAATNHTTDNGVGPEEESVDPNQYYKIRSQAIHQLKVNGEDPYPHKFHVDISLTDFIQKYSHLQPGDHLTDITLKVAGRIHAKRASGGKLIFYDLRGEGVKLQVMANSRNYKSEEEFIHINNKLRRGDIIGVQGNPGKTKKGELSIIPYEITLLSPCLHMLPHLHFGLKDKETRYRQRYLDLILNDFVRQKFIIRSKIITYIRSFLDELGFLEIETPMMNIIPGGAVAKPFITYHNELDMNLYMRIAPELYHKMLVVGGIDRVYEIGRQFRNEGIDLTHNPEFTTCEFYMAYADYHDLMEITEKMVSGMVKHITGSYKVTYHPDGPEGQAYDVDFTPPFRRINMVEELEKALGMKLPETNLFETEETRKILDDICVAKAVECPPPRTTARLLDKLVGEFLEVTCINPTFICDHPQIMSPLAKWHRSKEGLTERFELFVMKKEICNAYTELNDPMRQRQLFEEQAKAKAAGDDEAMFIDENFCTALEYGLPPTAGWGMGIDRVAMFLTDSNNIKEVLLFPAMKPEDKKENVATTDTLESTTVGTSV

[5] = target: CYP2C9 (Homo sapiens, UniProt P11712); assay: Inhibition of CYP2C9 (unknown origin) assessed as enzyme residual activity at 10 uM; assay type: ADME; details: read-out: Activity
[6] = target: CYP3A4 (Homo sapiens, UniProt P08684); assay: Inhibition of CYP3A4 (unknown origin) assessed as enzyme residual activity at 10 uM; assay type: ADME; details: read-out: Activity
[7] = target: CYP2C19 (Homo sapiens, UniProt P33261); assay: Inhibition of CYP2C19 (unknown origin) assessed as enzyme residual activity at 10 uM; assay type: ADME; details: read-out: Activity
[8] = target: T2, CYP1A2 (Homo sapiens, UniProt P05177); assay: Inhibition of CYP1A2 (unknown origin) assessed as enzyme residual activity at 10 uM; assay type: ADME; details: read-out: Activity
T2 sequence (P05177 whole entry): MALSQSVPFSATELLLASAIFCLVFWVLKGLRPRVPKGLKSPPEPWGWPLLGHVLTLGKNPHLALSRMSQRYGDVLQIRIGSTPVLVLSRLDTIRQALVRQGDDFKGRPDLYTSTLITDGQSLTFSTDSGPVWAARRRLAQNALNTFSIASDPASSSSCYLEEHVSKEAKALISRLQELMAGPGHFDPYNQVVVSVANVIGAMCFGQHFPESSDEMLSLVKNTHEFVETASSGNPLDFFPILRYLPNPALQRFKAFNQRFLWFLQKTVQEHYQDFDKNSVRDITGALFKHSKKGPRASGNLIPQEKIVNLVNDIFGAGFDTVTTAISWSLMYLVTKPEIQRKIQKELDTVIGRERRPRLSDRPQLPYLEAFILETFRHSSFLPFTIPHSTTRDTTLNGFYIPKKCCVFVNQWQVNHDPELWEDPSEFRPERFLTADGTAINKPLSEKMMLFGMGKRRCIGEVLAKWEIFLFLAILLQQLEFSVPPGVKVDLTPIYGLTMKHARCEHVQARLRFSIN

[9] = Half life in mouse at 5 mg/kg, po measured after 24 hrs; assay type: ADME, organism-based; details: in vivo
[10] = AUC(infinity) in mouse at 5 mg/kg, iv measured after 24 hrs; assay type: ADME, organism-based; parameters: route intravenous, time 24 hrs, dose 5 mg/kg; details: in vivo
[11] = test system: MDA-MB-231; assay: Antimigratory activity against tetracycline-induced KRS T52D mutant overexpressing human MDA-MB-231 cells assessed as inhibition of cell migration measured after 4 hrs by flourescence plate reader method; assay type: functional, cell-based; details: MDA-MB-231, 4 h
[12] = Metabolic stability in human liver microsomes assessed as parent compound remaining measured after 30 mins; assay type: ADME, Microsome; details: read-out: Stabilty
[13] = Metabolic stability in mouse liver microsomes assessed as parent compound remaining measured after 30 mins; assay type: ADME, Microsome; details: read-out: Stabilty
[14] = Tmax in mouse at 5 mg/kg, po measured after 24 hrs; assay type: ADME, organism-based; details: in vivo
[15] = Clearance in mouse at 5 mg/kg, iv measured after 24 hrs; assay type: ADME, organism-based; details: in vivo
[16] = AUC(t) in mouse at 5 mg/kg, po measured after 24 hrs; assay type: ADME, organism-based; parameters: route oral, time 24 hrs, dose 5 mg/kg; details: in vivo
[17] = Permeability of the compound at 50 uM measured after 4 hrs by PAMPA assay; assay type: ADME; details: read-out: permeability
[18] = Metabolic stability in rat liver microsomes assessed as parent compound remaining measured after 30 mins; assay type: ADME, Microsome; details: read-out: Stabilty
[19] = Volume of distribution at steady state in mouse at 5 mg/kg, iv measured after 24 hrs; assay type: ADME, organism-based; details: in vivo, read-out: Vdss
[20] = AUC(t) in mouse at 5 mg/kg, iv measured after 24 hrs; assay type: ADME, organism-based; parameters: route intravenous, dose 5 mg/kg, time 24 hrs; details: in vivo
[21] = test system: 4T1; assay: Anti-metastasis activity in mouse 4T1 cells xenografted in BALB/cAnCr mouse at 100 mg/kg, po administered for 16 days; assay type: functional, organism-based; details: time 16.0 day
[22] = Half life in mouse at 5 mg/kg, iv measured after 24 hrs; assay type: ADME, organism-based; details: in vivo
[23] = Metabolic stability in dog liver microsomes assessed as parent compound remaining measured after 30 mins; assay type: ADME, Canis lupus familiaris, Microsome; details: read-out: Stabilty
[24] = target: CYP2D6 (Homo sapiens, UniProt P10635); assay: Inhibition of CYP2D6 (unknown origin) assessed as enzyme residual activity at 10 uM; assay type: ADME; details: read-out: Activity
[25] = Oral bioavailability in mouse at 5 mg/kg measured after 24 hrs; assay type: ADME, organism-based; details: in vivo
[26] = Toxicity in Balb/cAnCr mouse xenografted with mouse 4T1 cells assessed as change in body weight at 100 mg/kg, po administered for 16 days; assay type: organism-based; details: in vivo, 384 h, time 16 day
[27] = AUC(infinity) in mouse at 5 mg/kg, po measured after 24 hrs; assay type: ADME, organism-based; parameters: route oral, dose 5 mg/kg, time 24 hrs; details: in vivo
[28] = Cmax in mouse at 5 mg/kg, po measured after 24 hrs; assay type: ADME, organism-based; parameters: route oral, dose 5 mg/kg, time 24 hrs; details: in vivo

Sequence of CYP2C9 (P11712 whole entry): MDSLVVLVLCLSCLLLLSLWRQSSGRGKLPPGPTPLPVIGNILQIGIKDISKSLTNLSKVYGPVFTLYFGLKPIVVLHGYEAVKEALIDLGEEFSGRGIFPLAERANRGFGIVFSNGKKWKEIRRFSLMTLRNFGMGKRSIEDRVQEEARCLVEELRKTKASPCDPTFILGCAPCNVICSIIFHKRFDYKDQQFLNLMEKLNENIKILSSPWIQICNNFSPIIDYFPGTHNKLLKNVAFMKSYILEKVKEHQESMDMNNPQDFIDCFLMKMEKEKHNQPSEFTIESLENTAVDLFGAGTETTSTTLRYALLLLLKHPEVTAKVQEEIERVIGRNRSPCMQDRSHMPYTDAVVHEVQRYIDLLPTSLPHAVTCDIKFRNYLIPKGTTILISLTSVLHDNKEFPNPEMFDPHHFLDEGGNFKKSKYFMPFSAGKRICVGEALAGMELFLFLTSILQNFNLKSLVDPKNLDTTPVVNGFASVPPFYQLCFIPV
Sequence of CYP3A4 (P08684 whole entry): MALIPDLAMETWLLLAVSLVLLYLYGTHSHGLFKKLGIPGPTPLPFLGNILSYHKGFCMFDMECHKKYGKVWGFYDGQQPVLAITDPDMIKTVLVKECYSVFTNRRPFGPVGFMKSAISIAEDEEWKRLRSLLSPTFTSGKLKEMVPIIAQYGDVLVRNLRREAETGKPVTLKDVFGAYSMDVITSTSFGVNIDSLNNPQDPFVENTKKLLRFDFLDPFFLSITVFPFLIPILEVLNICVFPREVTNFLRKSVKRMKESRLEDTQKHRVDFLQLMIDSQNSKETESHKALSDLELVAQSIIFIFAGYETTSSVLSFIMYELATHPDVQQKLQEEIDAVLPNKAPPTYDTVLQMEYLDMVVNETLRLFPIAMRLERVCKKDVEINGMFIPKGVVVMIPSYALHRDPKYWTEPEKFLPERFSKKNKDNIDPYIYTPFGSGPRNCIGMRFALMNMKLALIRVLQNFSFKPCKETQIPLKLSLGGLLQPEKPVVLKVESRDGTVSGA
Sequence of CYP2C19 (P33261 whole entry): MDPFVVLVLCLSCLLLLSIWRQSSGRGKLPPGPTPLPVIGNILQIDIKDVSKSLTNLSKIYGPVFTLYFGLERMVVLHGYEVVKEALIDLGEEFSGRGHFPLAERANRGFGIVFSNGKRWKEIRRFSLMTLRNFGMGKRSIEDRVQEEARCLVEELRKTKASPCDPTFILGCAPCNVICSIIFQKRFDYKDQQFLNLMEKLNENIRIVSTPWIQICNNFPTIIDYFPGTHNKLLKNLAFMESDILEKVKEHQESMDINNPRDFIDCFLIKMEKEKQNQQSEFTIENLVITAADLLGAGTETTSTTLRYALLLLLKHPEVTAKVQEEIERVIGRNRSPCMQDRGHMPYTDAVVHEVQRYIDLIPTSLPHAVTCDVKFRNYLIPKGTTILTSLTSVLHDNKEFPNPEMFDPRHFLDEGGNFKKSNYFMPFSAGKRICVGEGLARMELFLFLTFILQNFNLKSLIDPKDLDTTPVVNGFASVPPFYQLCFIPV
Sequence of CYP2D6 (P10635 whole entry): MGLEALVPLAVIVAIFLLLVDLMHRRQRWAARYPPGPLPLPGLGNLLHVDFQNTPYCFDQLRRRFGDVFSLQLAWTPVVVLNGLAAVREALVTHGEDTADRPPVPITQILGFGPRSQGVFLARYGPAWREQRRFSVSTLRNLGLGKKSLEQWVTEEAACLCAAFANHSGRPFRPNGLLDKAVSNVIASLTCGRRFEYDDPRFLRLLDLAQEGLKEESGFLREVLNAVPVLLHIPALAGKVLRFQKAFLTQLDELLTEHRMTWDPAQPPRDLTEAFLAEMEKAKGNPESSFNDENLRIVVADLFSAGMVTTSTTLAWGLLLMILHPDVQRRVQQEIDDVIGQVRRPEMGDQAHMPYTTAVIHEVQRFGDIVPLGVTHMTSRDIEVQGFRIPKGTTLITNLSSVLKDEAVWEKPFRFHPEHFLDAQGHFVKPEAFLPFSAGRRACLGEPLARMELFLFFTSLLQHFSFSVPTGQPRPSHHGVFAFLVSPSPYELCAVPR

With `COc1ccc(CCN(Cc2ccc(C(=O)O)cc2)c2nc3ccc(C(=O)O)cc3s2)cc1` the Activity [1] was “inactive”.

With `COc1ccc(CCN(Cc2ccc(C(=O)O)cc2)c2nc3cccnc3o2)cc1` the Activity [1] was “Active”.

With `COc1ccc(CCN(Cc2ccc(C(=O)O)cc2)c2nc3ccccc3o2)cc1` the Activity [1] was “Active”.

With `COc1ccc(CCN(Cc2ccc(C(=O)O)cc2)c2nc3cnccc3s2)cc1` the Activity [1] was “inactive”.

In the case of `CCC(C(=O)O)n1/c(=N/C(=O)c2cccc(C(F)(F)F)c2)sc2cc(F)c(F)cc21` (centres undefined), the pEC50 [2] was 5.07, the Activity [3] was “Active” and the pKd [4] was 4.31.

`COc1ccc(CCN(Cc2ccc(C(=O)O)cc2)c2nc3cc(F)c(F)c(F)c3s2)cc1` showed an inhibition at 3 µM [1] of 28%.

For `COc1ccc(CCN(Cc2ccc(C(=O)O)cc2)c2nc3cc(F)cc(F)c3[nH]2)cc1`, the Activity [1] was “inactive”.

`CC(=O)N1CCN(c2ccc(OCC3COC(Cn4ccnc4)(c4ccc(Cl)cc4Cl)O3)cc2)CC1` (centres undefined) [KETOCONAZOLE] gave an activity at 10 µM [5] greater than 100%, an activity at 10 µM [6] of 31.8% and an activity at 10 µM [7] greater than 100%. It also gave an activity at 10 µM [8] greater than 100%.

For `COc1ccc(CCN(Cc2ccc(C(=O)O)cc2)c2nc3ccc[n+]([O-])c3s2)cc1`, the Activity [1] was “inactive”.

For `COc1ccc(CCN(Cc2ccc(C(=O)O)cc2)c2nc3cc(NC(=O)c4ccc(N5CCN(C)CC5)cc4)ccc3o2)cc1`, the Activity [1] was “inactive”.

In the case of `COc1ccc(CCN(Cc2ccc(C(=O)O)cc2)c2nc3cncnc3s2)cc1`, the Activity [1] was “inactive”.

In the case of `COc1ccc(CCN(Cc2ccc(C(=O)O)cc2)c2nc3ncccc3s2)cc1`, the Activity [1] was “inactive”.

With `COc1ccc(CCN(Cc2ccc(C(=O)O)cc2)c2nc3cc(Cl)cnc3s2)cc1` the Activity [1] was “inactive”.

Work on `COc1ccc(CCN(Cc2ccc(C(=O)O)cc2)c2nc3cccnc3s2)cc1` yielded a half-life [9] of 1.56 h, an AUC(0-inf) [10] of 216 ng·h/mL and a pEC50 [11] of 7.09. The activity at 10 µM [5] was 74.6%, the remaining at 0.5 h [12] was 62.8% and the remaining at 0.5 h [13] was 65.8%. For the same compound, the activity at 10 µM [6] was 98.4%, the Activity [3] was “Active” and the Tmax [14] was 4.17 h. The clearance [15] was 392 mL/min/kg, the AUC(0-t) at 24 h [16] was 168 ng·h/mL and the Papp at 4 h, 50 µM [17] was 22.2 ×10⁻⁶ cm/s. The remaining at 0.5 h [18] was 73%, the activity at 10 µM [7] was 92.2% and the Vd [19] was 149 L/kg. The AUC(0-t) at 24 h [20] was 191 ng·h/mL, the Activity [21] was “Active” and the pKd [4] was 5.24. The half-life [22] was 6.05 h, the remaining at 0.5 h [23] was 79.5% and the inhibition at 3 µM [1] was 70%. For the same compound, the activity at 10 µM [8] was 91.1%, the activity at 10 µM [24] was 97.9% and the bioavailability [25] was 87.9%. The Activity [26] was “Non-Toxic”, the AUC(0-inf) [27] was 192 ng·h/mL and the Cmax [28] was 40 ng/mL.

For `COc1ccc(CCN(Cc2ccc(C(=O)O)cc2)c2nc3cc([N+](=O)[O-])ccc3o2)cc1`, the Activity [1] was “Active”.

For `COc1ccc(CCN(Cc2ccc(C(=O)O)cc2)c2nc3cc(NC(=O)Cc4ccc(OC)cc4)ccc3o2)cc1`, the Activity [1] was “Active”.

With `Cc1cc(=O)n(-c2ccccc2)n1C` [ANTIPYRINE] the Papp at 4 h, 50 µM [17] was 1.94 ×10⁻⁶ cm/s.

With `COc1ccc(CCN(Cc2ccc(C(=O)O)cc2)c2nc3ccc(CO)cc3s2)cc1` the Activity [1] was “inactive”.
